Measured values reported in patent publication US10117821B2, “Topical lightening composition and methods of use thereof” (Avon Products, Inc., priority 2013, dated 2018).
Marks after values point to notes of the source that are not given here.

Legend:
[1] = system: MELANODERM™ (MEL-300-B) human skin model; test: Melanin levels in MELANODERM 3D human skin model; type: cell-based; settings: vs water vehicle control
Description: The effect of 3,3′-thiodipropanoic acid or Thiodipropionic acid (TDPA) and Nicotinamide on melanin levels was investigated using a MELANODERM™ (MEL-300-B, MatTek Corp., Ashland, Mass.) human skin model. MELANODERM™ is a viable reconstituted three-dimensional human skin equivalent containing melanocytes derived from African-American donors. Tissues were maintained in culture medium EPI-100-NMM-113 at 37° C. as recommended by the manufacturer.
TDPA was dissolved in water to a final concentration of 1.0% (w/v). Nicotinamide was dissolved in the culture media to a final concentration of 0.1% (w/v). 25 μl of the TDPA solution was applied topically to the MELANODERM™ tissue while 0.1% Nicotinamide containing culture medium was added on days 1, 2, 4, 7, 9, and 11. Control tissues were treated with water vehicle only. The tissue was treated with both active lightening agents at “saturated concentration,” which is the highest concentration of treatment that is not toxic to the system.
On Day 14, tissues were collected and homogenized in a buffer containing 1% SDS, 50 mM EDTA, and 10 mM Tris, pH 6.8. To each homogenate, protease K (5 mg/ml) was added and incubated overnight at 45° C. Additional protease K was added and incubated for 4 hours at 45° C., followed by the addition of 0.5M sodium carbonate and 30% H2O2 and incubation at 80° C. for 30 minutes. The samples were cooled down to room temperature, and extracted with chloroform/methanol (2:1). After centrifugation at 10,000 g for 10 minutes, absorbance of the top phase was measured at 450 nm. Percent change in melanin levels in treated tissue was calculated relative to control.
The effect of TDPA and Soybean Trypsin Inhibitor (STI) on melanin levels was investigated using the MELANODERM™ human skin model according to the methods described in Example 1.

B16 mouse melanoma cells = test: Melanin synthesis in B16 melanoma cell assay, normalized to MTT cell viability; type: cell-based; settings: 7 days, vs water vehicle control, 6 replicates
Description: The effects of 3,3′-thiodipropanoic acid and Kojic acid on melanin levels were determined by performing assays using B16 melanoma cells. These cells are known to constitutively produce melanin and are a commonly utilized and accepted model system for monitoring the inhibition of melanin synthesis.
The B16 mouse melanoma cells were seeded (ATCC, cat. #: CRL-6475) into 96-well tissue culture-treated plates (BD Falcon) and treated with test actives or controls in DMEM without phenol red (Mediatech; cat. #: 17-205-CV). The cells were examined for their ability to modulate pigment formation. […] Tests were performed in 6 replicates each. Following the treatment period, the level of pigment produced or melanin synthesized was quantified by reading the absorbance at 540 nm using a standard microplate reader (Tecan Group Ltd.).
After quantifying the amount of melanin, cell viability was determined using the MTT conversion method. […] After quantifying the amount of melanin pigment produced, the cells were exposed to MTT dye solution (1 mg/ml) for two to three hours. […] MTT dye uptake and conversion by viable cells were determined by measuring the extracted formazan at 570 nm using a microplate reader. Total pigmentation was calculated, normalized to cell viability values and expressed as the average percent change in melanin level relative to control of sextuplicates performed.

NC(=O)c1cccnc1 [Nicotinamide, nicotinamide (3-pyridinecarboxamide), reference compound]
% CHANGE IN MELANIN ([1]; Example 1, 0.1% (w/v) in culture medium, Day 14, average of three tissues): −16%*

O=C(O)CCSCCC(=O)O [TDPA, 3,3′-thiodipropionic acid]
% CHANGE IN MELANIN (B16 mouse melanoma cells; 0.1% final concentration): −27.4%* | % CHANGE IN MELANIN ([1]; Example 1, 1% (w/v) in water, 25 μl topical, Day 14, average of three tissues): −10%* | % CHANGE IN MELANIN ([1]; Example 3, 1%, methods of Example 1): −9.1%

O=c1cc(CO)occ1O [Kojic Acid, Kojic acid (5-hydroxy-4-pyran-4-one-2-methyl), reference compound]
% CHANGE IN MELANIN (B16 mouse melanoma cells; 0.01% final concentration): −47.6%*

B1: STI: Soybean Trypsin Inhibitor (STI), a known melanosome transfer inhibitor (protein, UniProt P01070 25-205, looked up)
Trypsin inhibitor A: DFVLDNEGNPLENGGTYYILSDITAFGGIRAAPTGNERCPLTVVQSRNELDKGIGTIISSPYRIRFIAEGHPLSLKFDSFAVIMLCVGIPTEWSVVEDLPEGPAVKIGENKDAMDGWFRLERVSDDEFNNYKLVFCPQQAEDDKCGDIGISIDHDDGTRRLVVSKNKPLVVQFQKLDKESL
% CHANGE IN MELANIN ([1]; Example 3, 0.1%, methods of Example 1): −8.9%
